Laboratory results published in paper PMC10761937, “Functional engineering of human iPSC‐derived parasympathetic neurons enhances responsiveness to gastrointestinal hormones” (FEBS Open Bio, 2023).

System: NPY2R
Assay: Ca^2+ imaging, NPY2R‐HEK293T cells
Format: cell-based, human
Conditions: PYY (3-36) per Fig. S2B, Fluo‐8 AM, Ringer's solution pH 7.4, ΔF/F0, n = 10
Description: HEK293T cells (Lenti‐X 293T Cell line; TaKaRa, Shiga, Japan) were maintained in Dulbecco's Modified Eagle Medium (DMEM; Fujifilm Wako Pure Chemical Industries, Osaka, Japan) supplemented with 10% fetal bovine serum (Biowest, Nuaillé, France), 1% non‐essential amino acids (NEAA) (Fujifilm Wako Pure Chemical Industries), and 1% penicillin–streptomycin (P/S) (Fujifilm Wako Pure Chemical Industries) and cultured in non‐coated culture plates at 37 °C and in an incubator with 5% CO2. The culture medium was replaced every 2–3 days. At 80–90% confluence, the cell colonies were digested into single cells using TrypLE Express (Thermo Fisher Scientific). The resulting cells were used for lentiviral transfection and agonist experiments.
Figure S1 presents the protocol used for this experiment. Lentiviral vectors were acquired from VectorBuilder (VectorBuilder Japan, Inc., Kanagawa, Japan). […]
Transduced HEK293T and neurons were incubated with 10 μM Fluo‐8 AM, a calcium indicator (AAT Bioquest, Pleasanton, CA, USA), in each culture medium (Cell lines and cell culture and Induction to parasympathetic neurons sections) at 37 °C for 30 min. […] Fluorescence (excitation: 490 nm, emission: 525 nm) was detected using a confocal spinning disk confocal laser scanning unit (CSU‐W1; Yokogawa Electric, Tokyo, Japan) and an LED light (X‐Cite 120LED; Opto Science, Tokyo, Japan). […]

Substance: PYY: PYY (4400‐v; Peptide Institute, Inc.); PYY (3–36) in Ca2+ imaging
- Concentration giving response (increased intracellular Ca^2+ concentration): > 10 nM
